Legend:
Assay in all cases: Postemergence herbicidal activity under field conditions, visual weed control
Type in all cases: in vivo
Conditions in all cases: field trial #1, 45 to 92 days after application
[1] = system: scentless mayweed (Matricaria inodora, MATIN)
Procedure: (§1) These trials were conducted under field conditions in Germany. Trial sites were located in commercially grown winter barley and winter rye. The crops were grown using normal cultural practices for fertilization, seeding, and maintenance to ensure good growth of the crop and the weeds. The trials were conducted using normal research methodology. Trial plots were between 2.5 to 3 meters (m) wide by 6 to 10 m long. All treatments were applied using a randomized complete block trial design with 3 replications per treatment. The trial sites had naturally occurring populations of weeds. The weed spectrum included, but was not limited to, scentless mayweed (Matricaria inodora, MATIN), field forget-me-not (Myosotis arvensis, MYOAR), and Bachelor's button (Centaurea cyanus, CENCY).
(§2) Treatments consisted of formulated products applied in water. The application volumes were 200 liter per hectare (L/ha). All application were made using precision bicycle sprayers using a 3 m boom using flat fan (80° or 110°) nozzles to broadcast the treatments on the testing plots.
(§3) The treated plots and control plots were rated blind at various intervals after application. Ratings were based of Percent (%) Visual weed control, where 0 corresponds to no injury and 100 corresponds to complete kill. […]

[2] = system: Bachelor's button (Centaurea cyanus, CENCY)
Procedure: as §1, §2, §3

[3] = system: field forget-me-not (Myosotis arvensis, MYOAR)
Procedure: as §1, §2, §3

SMILES: COc1ncc(F)c2nc(S(=O)(=O)Nc3c(F)cccc3F)nn12 [Florasulam, 2′,6′,8-trifluoro-5-methoxy[1,2,4]triazolo[1,5-c]-pyrimidine-2-sulfonanilide]
- MATIN Obs - Percent control observed ([1]; florasulam 2.5 g ai/ha alone): 60%
- MATIN Obs - Percent control observed ([1]; florasulam 3.75 g ai/ha alone): 67%
- MATIN Obs - Percent control observed ([1]; florasulam 5 g ai/ha alone): 53%
- CENCY Obs - Percent control observed ([2]; florasulam 2.5 g ai/ha alone): 20%
- CENCY Obs - Percent control observed ([2]; florasulam 3.75 g ai/ha alone): 40%
- CENCY Obs - Percent control observed ([2]; florasulam 5 g ai/ha alone): 70%
- MYOAR Obs - Percent control observed ([3]; florasulam 2.5 g ai/ha alone): 50%
- MYOAR Obs - Percent control observed ([3]; florasulam 3.75 g ai/ha alone): 50%
- MYOAR Obs - Percent control observed ([3]; florasulam 5 g ai/ha alone): 67%

SMILES: O=C(O)c1nc(Cl)ccc1Cl [Clopyralid, 3,6-dichloropyridine-2-carboxylic acid]
- MATIN Obs - Percent control observed ([1]; clopyralid 30 g ae/ha alone): 0%
- MATIN Obs - Percent control observed ([1]; clopyralid 45 g ae/ha alone): 50%
- MATIN Obs - Percent control observed ([1]; clopyralid 60 g ae/ha alone): 58%
- CENCY Obs - Percent control observed ([2]; clopyralid 30 g ae/ha alone): 37%
- CENCY Obs - Percent control observed ([2]; clopyralid 45 g ae/ha alone): 57%
- CENCY Obs - Percent control observed ([2]; clopyralid 60 g ae/ha alone): 73%
- MYOAR Obs - Percent control observed ([3]; clopyralid 30 g ae/ha alone): 0%
- MYOAR Obs - Percent control observed ([3]; clopyralid 45 g ae/ha alone): 0%
- MYOAR Obs - Percent control observed ([3]; clopyralid 60 g ae/ha alone): 0%

Source: patent US20110312495A1, “SYNERGISTIC HERBICIDAL COMPOSITION CONTAINING CLOPYRALID AND FLORASULAM” (DOW AGROSCIENCES LLC, priority 2010, published 2011)
